The results in this text go back to the Kinase Knowledgebase extract (Sharma et al. 2016).

Structures are written as SMILES. Some results are limits rather than exact numbers.

This assay has as its target PIK3CG (human) (UniProt P48736). As to the kind of experiment: Inhibition of PIK3CG Kinase Activity.

Chain of PIK3CG (human) (P48736 whole entry, looked up): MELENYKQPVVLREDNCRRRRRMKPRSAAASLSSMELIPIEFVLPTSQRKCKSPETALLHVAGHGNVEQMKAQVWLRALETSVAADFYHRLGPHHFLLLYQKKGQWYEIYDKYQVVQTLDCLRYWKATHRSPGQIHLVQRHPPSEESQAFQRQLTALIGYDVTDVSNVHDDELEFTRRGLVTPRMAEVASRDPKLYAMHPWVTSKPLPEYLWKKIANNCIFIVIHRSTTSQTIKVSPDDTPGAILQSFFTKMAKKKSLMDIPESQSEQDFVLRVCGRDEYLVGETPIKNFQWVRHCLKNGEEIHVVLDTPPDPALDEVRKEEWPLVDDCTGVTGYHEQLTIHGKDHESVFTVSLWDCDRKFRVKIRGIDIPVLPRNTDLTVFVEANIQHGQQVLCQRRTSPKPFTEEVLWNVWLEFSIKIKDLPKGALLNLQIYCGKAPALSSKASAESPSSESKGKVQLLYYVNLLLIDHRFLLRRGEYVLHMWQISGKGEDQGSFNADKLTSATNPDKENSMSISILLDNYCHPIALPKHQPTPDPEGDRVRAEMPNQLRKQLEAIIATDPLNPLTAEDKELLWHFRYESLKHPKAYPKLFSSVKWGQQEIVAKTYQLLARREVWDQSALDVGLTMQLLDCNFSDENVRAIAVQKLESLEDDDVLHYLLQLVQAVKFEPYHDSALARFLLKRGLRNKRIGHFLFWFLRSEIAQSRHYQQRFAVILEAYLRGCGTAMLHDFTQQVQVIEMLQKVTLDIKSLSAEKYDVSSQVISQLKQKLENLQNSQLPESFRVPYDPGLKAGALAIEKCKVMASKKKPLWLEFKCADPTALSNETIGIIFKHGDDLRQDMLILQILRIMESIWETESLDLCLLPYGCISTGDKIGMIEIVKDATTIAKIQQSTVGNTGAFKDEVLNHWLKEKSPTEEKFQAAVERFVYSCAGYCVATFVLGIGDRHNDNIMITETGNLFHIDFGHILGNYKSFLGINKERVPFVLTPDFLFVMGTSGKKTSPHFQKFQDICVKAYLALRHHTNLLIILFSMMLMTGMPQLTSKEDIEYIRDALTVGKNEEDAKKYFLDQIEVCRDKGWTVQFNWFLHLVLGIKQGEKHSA

As usually defined, the Ki is a dissociation constant, usually derived from enzyme kinetics or from competition with a known ligand. A higher Ki goes with lower affinity. As to `COc1cc(-c2cc(C)c3c(n2)C(O)(C2CC2)N(c2cnn(CC(F)(F)F)c2)C3=O)cnc1OC` (centres undefined), the inhibition constant (Ki) is less than 100 nM. As to `COc1cc(-c2cc(C)c3c(n2)CN(c2nc(CO)cs2)C3=O)cnc1OC`, the Ki was less than 100 nM.

In the case of `COc1cncc(-c2cc(C)c3c(n2)C2(COC2)N(c2cnn(CC(F)(F)F)c2)C3=O)c1`, the Ki is less than 100 nM.

As to `COc1cc(-c2ccc3c(n2)CN(c2cnn([C@@H](C)C#N)c2)C3=O)cnc1OC`, the Ki was less than 100 nM. The figure for `COc1cc(-c2cc(C)c3c(n2)[C@]2(CCCO2)N(c2cnn(CC(F)(F)F)c2)C3=O)cnc1OC(C)C` is less than 100 nM; for `COc1cc(-c2ccc3c(c2)CN(c2cncc(C#N)c2)C3=O)cnc1OC` it is 100 to 490 nM. The figure for `COc1cncc(-c2cc(C)c3c(n2)CN(c2cnn(CC#N)c2)C3=O)c1` is less than 100 nM; for `CCOc1cncc(-c2cc(C)c3c(n2)[C@H](OC)N(c2cnn(CC(F)(F)F)c2)C3=O)c1` it is less than 100 nM. The figure for `COc1cc(-c2cc(C)c3c(n2)CN(c2cncc(F)c2)C3=O)cnc1OC` is less than 100 nM; for `COc1cc(-c2ccc3c(n2)CN(c2cnn(CC(O)C(F)(F)F)c2)C3=O)cnc1OC` (centres undefined) it is less than 100 nM; for `COc1cc(-c2ccc3c(n2)CN(c2cnn(C(C)C)c2)C3=O)cnc1OC` it is less than 100 nM. With `COc1ccc(-c2cc(C)c3c(c2)CN(c2cnn(CC(F)(F)F)c2)C3=O)cc1OC`, the Ki is less than 100 nM.

With `CCOc1cc(N2Cc3nc(-c4cnc(OC)c(OC)c4)cc(C)c3C2=O)ccn1`, the Ki is less than 100 nM. Regarding `COc1cc(-c2cc(N3CCC3)c3c(n2)CN(c2cnn(CC(F)(F)F)c2)C3=O)cnc1OC`, the Ki is less than 100 nM. To `Cc1cc(-c2cncc(S(=O)(=O)NC(C)C)c2)nc2c1C(=O)N(c1cnn(CC(F)(F)F)c1)C2(C)C` belongs less than 100 nM.

`Cc1cc(-c2cncc(OC(F)F)c2)cc2c1C(=O)N(c1cnn(CC(F)(F)F)c1)C2C` (centres undefined) showed a Ki of less than 100 nM. To `COc1cc(-c2ccc3c(n2)CN(c2cncs2)C3=O)cnc1OC` belongs less than 100 nM. Regarding `COc1cncc(-c2cc(C)c3c(n2)C2(C[C@@H](O)[C@@H](O)C2)N(c2cnn(CC(F)(F)F)c2)C3=O)c1` (some centres undefined), the Ki is less than 100 nM. The figure for `COc1cncc(-c2cc(C)c3c(n2)CN(c2ccn(C[C@@H](C)F)n2)C3=O)c1` is less than 100 nM; for `Cc1cc(-c2cncc(N)c2)nc2c1C(=O)N(c1cnn(CC(F)(F)F)c1)C2` it is 100 to 490 nM; for `COc1cc(-c2ccc3c(n2)CN(c2cnn(C(C)(C)C#N)c2)C3=O)cnc1OC` it is less than 100 nM. To `COc1cc(-c2cc(C)c3c(n2)CN(c2cncc(CN(C)C)c2)C3=O)cnc1OC` belongs less than 100 nM; to `CCOc1cc(-c2cc(C)c3c(n2)C(C)(C)N(c2cnn(CC(F)(F)F)c2)C3=O)cnc1C`, less than 100 nM; to `COc1cncc(-c2cc(C)c3c(n2)C(C)N(c2cnn(CC(F)(F)F)c2)C3=O)c1` (centres undefined), less than 100 nM. To `COCCn1cc(N2Cc3nc(-c4cnc(OC)c(OC)c4)ccc3C2=O)ccc1=O` belongs 100 to 490 nM; to `COCCOc1ncc(-c2cc(C)c3c(n2)CN(c2cnn(CC#N)c2)C3=O)cc1OC`, less than 100 nM; to `COc1cc(-c2cc(C)c3c(n2)CN(c2cncc(OCCO)c2)C3=O)cnc1OC`, less than 100 nM.

Regarding `COc1cncc(-c2cc(C)c3c(n2)C(C)N(c2ccn(CC4CCCO4)n2)C3=O)c1` (centres undefined), the Ki was less than 100 nM. To `COc1cc(-c2cc(C)c3c(n2)CN(c2cn[nH]c2)C3=O)cnc1OC` belongs less than 100 nM; to `COc1cc(-c2ccc3c(n2)CN(c2ccc(N4CCN(CCC#N)CC4)nc2)C3=O)cnc1OC`, less than 100 nM; to `COc1cc(-c2ccc3c(n2)C2(CC2)N(c2cnn(CC(F)(F)F)c2)C3=O)cnc1OC`, less than 100 nM.

`CCOc1cc(-c2cc(C)c3c(n2)CN(c2cnn(CC)c2)C3=O)cnc1OC` gave a Ki of less than 100 nM.

The molecule `COc1cc(-c2ccc3c(c2)CN(c2cnn(CCC#N)c2)C3=O)cnc1OC` came in with a Ki of less than 100 nM. `CCn1cc(N2C(=O)c3ccc(-c4cnc(OC)c(OC(F)F)c4)nc3C2C)cn1` (centres undefined) yielded a Ki of less than 100 nM. Take `COc1cncc(-c2cc(C)c3c(n2)C(C)(C)N(c2ccn(C[C@H](C)O)n2)C3=O)c1`: the Ki was less than 100 nM. The figure for `COc1cc(-c2cc(C)c3c(n2)CN(c2ccnc(C4(C#N)CC4)c2)C3=O)cnc1OC` is less than 100 nM; for `COc1cc(-c2cc(C)c3c(n2)CN(c2ccn(C(F)F)c(=O)c2)C3=O)cnc1OC` it is less than 100 nM.

Molecule `Cc1cc(-c2cncc(OC(F)F)c2)nc2c1C(=O)N(c1cnn(CC(F)F)c1)C2` came in with a Ki of less than 100 nM.

`COc1cc(-c2ccc3c(n2)CN(c2cnn(C4CCCCC4O)c2)C3=O)cnc1OC` (centres undefined) yielded a Ki of 100 to 490 nM. The figure for `CCOc1cc(-c2ccc3c(n2)CN(c2cnn(CC#N)c2)C3=O)cnc1OCC` is less than 100 nM; for `COc1cc(-c2ccc3c(c2)CN(c2cncc(C)c2)C3=O)cnc1OC` it is less than 100 nM. Regarding `COc1cc(-c2cc(C)c3c(n2)[C@@]2(CCCO2)N(c2cnn(CC(F)(F)F)c2)C3=O)cnc1OC`, the Ki was less than 100 nM. To `COc1ncc(-c2cc(C)c3c(n2)C(C)(C)N(c2cnn(CC(F)(F)F)c2)C3=O)cc1C(=O)O` belongs less than 100 nM; to `CCn1ccc(N2C(=O)c3c(C)cc(-c4cncc(OC)c4)nc3[C@@H]2C)n1`, less than 100 nM. The figure for `Cc1cc(-c2cncc(S(C)(=O)=O)c2)nc2c1C(=O)N(c1cnn(CC(F)(F)F)c1)[C@H]2C` is less than 100 nM; for `Cc1cc(-c2cncc(CO)c2)nc2c1C(=O)N(c1cnn(CC(F)(F)F)c1)C2` it is less than 100 nM. To `COc1cc(-c2cc(C)c3c(n2)CN(c2ccnc(OCC(F)(F)F)c2)C3=O)cnc1OC` belongs less than 100 nM.

In the case of `COc1ncc(-c2cc(C)c3c(n2)CN(c2cn[nH]c2)C3=O)cc1OCC(F)F`, the Ki is less than 100 nM.

The molecule `COc1ncc(-c2cc(C)c3c(n2)C(C)(C)N(c2cnn(CC(F)(F)F)c2)C3=O)cc1C(=O)NCC(C)O` (centres undefined) displayed a Ki of less than 100 nM. The figure for `CCOc1cncc(-c2cc(C)c3c(n2)CN(c2cnn(CC(F)(F)F)c2)C3=O)c1` is less than 100 nM; for `Cc1cc(-c2cncc(NS(=O)(=O)N(C)C)c2)nc2c1C(=O)N(c1cnn(CC(F)(F)F)c1)C2(C)C` it is less than 100 nM. The figure for `CCn1cc(N2Cc3nc(-c4cnc(OC)c(OC)c4)ccc3C2=O)cn1` is less than 100 nM; for `CSc1cncc(-c2cc(C)c3c(n2)CN(c2cnn(CC(F)(F)F)c2)C3=O)c1` it is less than 100 nM; for `COc1ncc(-c2cc(C)c3c(n2)C(C)(C)N(c2cnn(CC(F)(F)F)c2)C3=O)cc1C(=O)NC(C)C` it is less than 100 nM. To `CCC1c2nc(-c3cnc(OC)c(OC)c3)ccc2C(=O)N1c1cnn(CC(F)(F)F)c1` (centres undefined) belongs less than 100 nM; to `CCNC(=O)c1cc(-c2cc(C)c3c(n2)C(C)(C)N(c2cnn(CC(F)(F)F)c2)C3=O)cnc1OC`, less than 100 nM; to `COc1cc(-c2cc(C)c3c(n2)[C@H](C)N(c2cnn(CC(F)(F)F)c2)C3=O)cnc1C`, less than 100 nM. With `CCNC(=O)c1cc(-c2cc(C)c3c(n2)C(C)(C)N(c2cnn(CC(F)F)c2)C3=O)cnc1OC`, the Ki was less than 100 nM.

Consider `CCc1ncc(-c2cc(C)c3c(n2)C(C)(C)N(c2cnn(CC(F)(F)F)c2)C3=O)cc1OC`, for which the Ki was less than 100 nM. The figure for `COc1cncc(-c2cc(C)c3c(n2)C(C)(C)N(c2cnn(CC(F)F)c2)C3=O)c1` is less than 100 nM; for `COc1cc(-c2ccc3c(n2)CN(c2ccn(C[C@@H](C)O)n2)C3=O)cnc1OC` it is less than 100 nM; for `COc1ncc(-c2cc(C)c3c(n2)CN(c2ccn(C4COC4)n2)C3=O)cc1OCC(F)(F)F` it is less than 100 nM. Turning to `CCCOc1cc(-c2cc(C)c3c(n2)CN(c2ccn(CC)n2)C3=O)cnc1OC`, the inhibition constant (Ki) is less than 100 nM.

As to `COc1cc(-c2ccc3c(n2)CN(c2cnn(Cc4ccc(Cl)nc4)c2)C3=O)cnc1OC`, the Ki is less than 100 nM. For `COc1ccc(-c2cc(C)c3c(n2)C(C)(C)N(c2cnn(CC(F)F)c2)C3=O)nc1OC`, the Ki was less than 100 nM. `COc1cc(-c2cc(C)c3c(n2)[C@@]2(CCCO2)N(c2cnn(CC(F)(F)F)c2)C3=O)cnc1OC(C)C` gave a Ki of less than 100 nM.

For the molecule `Cc1cc(-c2cncc(C(=O)NC(C)(C)C)c2)nc2c1C(=O)N(c1cnn(CC(F)(F)F)c1)C2(C)C`, the Ki is less than 100 nM. The figure for `CCOc1ccc(N2Cc3nc(-c4cnc(OC)c(OC)c4)ccc3C2=O)cn1` is 100 to 490 nM. `Cc1cc(-c2cncc(C(=O)N3CCCC3)c2)nc2c1C(=O)N(c1cnn(CC(F)(F)F)c1)C2` yielded a Ki of 100 to 490 nM.

The molecule `COc1cc(-c2ccc3c(n2)C(C)N(c2ccc(N4CCC(O)C4)nc2)C3=O)cnc1OC` (centres undefined) displayed a Ki of 100 to 490 nM. The figure for `COc1cc(-c2cc(C)c3c(n2)[C@]2(CCCO2)N(c2cnn(CC(F)(F)F)c2)C3=O)cnc1OC` is less than 100 nM; for `COc1cncc(N2Cc3nc(-c4cnc(OC)c(OC)c4)cc(C)c3C2=O)c1` it is less than 100 nM; for `COc1cc(-c2cc(C)c3c(n2)CN(c2cc(C)[nH]n2)C3=O)cnc1OC` it is less than 100 nM.

In turn, `Cc1cc(-c2cncc(C(=O)N3CCOCC3)c2)nc2c1C(=O)N(c1cnn(CC(F)(F)F)c1)C2(C)C` yielded a Ki of 100 to 490 nM.

With `COc1cc(-c2ccc3c(n2)C(C)N(c2cc[nH]n2)C3=O)cnc1OC` (centres undefined), the Ki was less than 100 nM. With `Cc1cc(-c2cncc(OC(F)F)c2)nc2c1C(=O)N(c1cnn(C(C)(C)C#N)c1)C2`, the inhibition constant Ki was less than 100 nM.

Molecule `COc1ncc(-c2cc(C)c3c(n2)C(C)(C)N(c2cnn(CC(F)(F)F)c2)C3=O)cc1C(=O)NC1COC1` returned a Ki of less than 100 nM. The figure for `CCC1c2nc(-c3cnc(OC)c(OC)c3)ccc2C(=O)N1c1cc(COC)n(CC)n1` (centres undefined) is 100 to 490 nM; for `COCn1cc(N2Cc3nc(-c4cnc(OC)c(OC)c4)cc(C)c3C2=O)cn1` it is less than 100 nM. To `COc1ncc(-c2cc(C)c3c(n2)C(C)(C)N(c2cnn(C(C)(C)C#N)c2)C3=O)cc1OCC(F)F` belongs less than 100 nM; to `COc1cc(-c2ccc3c(n2)CN(c2cnn(CCn4cccn4)c2)C3=O)cnc1OC`, 100 to 490 nM; to `CCn1ccc(N2C(=O)c3c(C)cc(-c4cncc(OCC(F)F)c4)nc3C2C)n1` (centres undefined), less than 100 nM. The figure for `COc1cc(-c2cc(C)c3c(n2)CN(c2cnn(C(C)(C)C#N)c2)C3=O)cnc1O` is 100 to 490 nM.

For the molecule `CCn1cc(N2Cc3nc(-c4cnc(OC)c(OCC5CC5)c4)cc(C)c3C2=O)cn1`, the Ki was less than 100 nM.
